Measurements from US20090162413A1 (priority 1998, published 2009).
Blank lines part the entries; values can stand above or below the compound they belong to.

Assays:
[1] = cynomolgus monkey, in vivo, iv, 2.5 mg/kg
[2] = accelerated in vitro elution from PC1036 coated drug-loaded stents (Example 10); format: physicochemical; conditions: stents with 10 μg/mm zotarolimus alone or with paclitaxel
[3] = test system: human coronary artery endothelial cells (hCaEC); assay: 3H-thymidine uptake proliferation assay, hCaEC; format: cell-based
Procedure: Experiments were performed to investigate interactions between zotarolimus (ABT-578) and paclitaxel when administered in combination. The effects of paclitaxel and zotarolimus on the anti-proliferative activity of human coronary artery smooth muscle ([…]) and endothelial […] determined using an in vitro proliferation assay. The proliferation and migration of vascular smooth muscle cells into the vascular neointima is a characteristic pathologic response seen in restenotic lesions (Lafont and Libby, 1998). As a result, in vitro assays which specifically measure the anti-proliferative activity of candidate anti-restenotic compounds on human coronary artery smooth muscle and endothelial cells predict potential anti-restenotic activity in vivo. To determine if paclitaxel attenuated or augmented the activity of zotarolimus the effect of paclitaxel and zotarolimus alone and in combination on growth-factor induced proliferation was determined. Data were analyzed for additivity using an isobologram approach and a combination index analysis. An isobologram is a Cartesian plot of pairs of doses that, in combination, yield a specified level of effect. It is a convenient way of graphically displaying results of drug-combination and similar studies, because paired values of experimental points that fall below or above the line connecting the axial points indicate synergistic and non-synergistic interactions, respectively. Cell proliferation was monitored by following incorporation of ^3H-thymidine into newly synthesized DNA of cells stimulated by serum and growth factors. Exponentially growing […] were seeded into 96-well flat bottom tissue culture plates at 5,000 cells/well (10,000 cells/well for […]). The cells were allowed to attach overnight. […] PerkinElmer; Wellesley; MA) was added to each filter well and the plates were counted using a TopCount microplate scintillation counter (PerkinElmer). […] The concentration eliciting a specific anti-proliferative effect was determined using a four-parameter equation (equation 1): […]

[4] = test system: human coronary artery smooth muscle cells (hCaSMC); assay: 3H-thymidine uptake proliferation assay, hCaSMC; format: cell-based
Procedure: Experiments were performed to investigate interactions between zotarolimus (ABT-578) and paclitaxel when administered in combination. The effects of paclitaxel and zotarolimus on the anti-proliferative activity of human coronary artery smooth muscle ([…]) and endothelial […] determined using an in vitro proliferation assay. The proliferation and migration of vascular smooth muscle cells into the vascular neointima is a characteristic pathologic response seen in restenotic lesions (Lafont and Libby, 1998). As a result, in vitro assays which specifically measure the anti-proliferative activity of candidate anti-restenotic compounds on human coronary artery smooth muscle and endothelial cells predict potential anti-restenotic activity in vivo. Compounds or combinations of compounds which attenuate growth factor-mediated human coronary artery smooth muscle cell ([…]) proliferation, as measured by the tritium incorporation assay in vitro, are candidate anti-restenotic agents. The tritium incorporation assay is an accurate and sensitive method to determine cell number and proliferation. […] The attenuation of zotarolimus's anti-proliferative activity by tacrolimus is a clear example of this effect (FIG. 10A). To determine the potential anti-restenotic activity of combinations of zotarolimus and paclitaxel, the proliferation of […] was measured in the presence of each compound and in combination. To determine if paclitaxel attenuated or augmented the activity of zotarolimus the effect of paclitaxel and zotarolimus alone and in combination on growth-factor induced proliferation was determined. Data were analyzed for additivity using an isobologram approach and a combination index analysis. An isobologram is a Cartesian plot of pairs of doses that, in combination, yield a specified level of effect. It is a convenient way of graphically displaying results of drug-combination and similar studies, because paired values of experimental points that fall below or above the line connecting the axial points indicate synergistic and non-synergistic interactions, respectively. Cell proliferation was monitored by following incorporation of ^3H-thymidine into newly synthesized DNA of cells stimulated by serum and growth factors. Exponentially growing […] were seeded into 96-well flat bottom tissue culture plates at 5,000 cells/well (10,000 cells/well for […]). The cells were allowed to attach overnight. The growth medium was removed the following day, and cells were washed twice with un-supplemented (basal) medium to remove traces of serum and growth factors. […] PerkinElmer; Wellesley; MA) was added to each filter well and the plates were counted using a TopCount microplate scintillation counter (PerkinElmer). […]

Human MLR = assay: human mixed lymphocyte reaction (MLR) assay; format: cell-based; conditions: read-out: Human MLR IC50 ± S.E.M.

Compound: 40-epi-N-[2′-pyridone]-rapamycin [Example 2-pyridone]
AUC [1]: 2.55 ng·h/mL

Compound: COC1CC2CCC(C)C(O)(O2)C(=O)C(=O)N2CCCCC2C(=O)OC(C(C)CC2CCC(n3ccc(=O)cc3)C(OC)C2)CC(=O)C(C)C=C(C)C(O)C(OC)C(=O)C(C)CC(C)C=CC=CC=C1C (stereo not drawn) [Example 4-pyridone, 40-epi-N-[4′-pyridone]-rapamycin]
AUC [1]: 5.59 ng·h/mL

Compound: C=CC[C@@H]1/C=C(\C)C[C@H](C)C[C@H](OC)[C@H]2O[C@@](O)(C(=O)C(=O)N3CCCC[C@H]3C(=O)O[C@H](/C(C)=C/[C@@H]3CC[C@@H](O)[C@H](OC)C3)[C@H](C)[C@@H](O)CC1=O)[C@H](C)C[C@@H]2OC [tacrolimus]
effect on the anti-proliferative activity of zotarolimus ([4]; smooth muscle cells in vitro, FIG. 10A): blocks the anti-proliferative activity of zotarolimus

Further lines, with some results ahead:

effect on the elution profile of zotarolimus [2]: little effect
Compound: CC(=O)O[C@H]1C(=O)[C@@]2(C)[C@H]([C@H](OC(=O)c3ccccc3)[C@]3(O)C[C@H](OC(=O)[C@H](O)[C@@H](NC(=O)c4ccccc4)c4ccccc4)C(C)=C1C3(C)C)[C@]1(OC(C)=O)CO[C@@H]1C[C@@H]2O [PAC, paclitaxel]
IC50 ([3]; Homo sapiens, Endothelial cell, read-out: hCaEC IC50 Mean ± SEM): 4.6 ± 0.3 nM | effect on the inhibition of proliferation by zotarolimus ([3]; hCaEC, FIG. 10C): not blocked | IC50 ([4]; Homo sapiens, read-out: hCaSMC IC50 Mean ± SEM): 3 ± 0.5 nM | effect on the inhibition of proliferation by zotarolimus ([4]; hCaSMC, FIG. 10B): not blocked

IC50 (Human MLR): 0.91 ± 0.36 nM
Compound: CO[C@H]1C[C@@H]2CC[C@@H](C)[C@@](O)(O2)C(=O)C(=O)N2CCCC[C@H]2C(=O)O[C@H]([C@H](C)C[C@@H]2CC[C@@H](O)[C@H](OC)C2)CC(=O)[C@H](C)/C=C(\C)[C@@H](O)[C@@H](OC)C(=O)[C@H](C)C[C@H](C)/C=C/C=C/C=C/1C [Rapamycin]
